Each molecule was assayed against T1, PPARδ (Homo sapiens, UniProt Q03181) (assay: Transactivation assay (PPARδ GAL4 assay) in transiently transfected HEK293 cells). Conditions: luciferase reporter, Table 1.
T1 construct: fused to amino acids 147-441 of PPARδ downstream of CMV promoter; expressed in transfected cells; host or cells: HEK293 cells, transiently transfected with pFACMV-PPARδ using Fugene
T1 sequence (Q03181 147-441): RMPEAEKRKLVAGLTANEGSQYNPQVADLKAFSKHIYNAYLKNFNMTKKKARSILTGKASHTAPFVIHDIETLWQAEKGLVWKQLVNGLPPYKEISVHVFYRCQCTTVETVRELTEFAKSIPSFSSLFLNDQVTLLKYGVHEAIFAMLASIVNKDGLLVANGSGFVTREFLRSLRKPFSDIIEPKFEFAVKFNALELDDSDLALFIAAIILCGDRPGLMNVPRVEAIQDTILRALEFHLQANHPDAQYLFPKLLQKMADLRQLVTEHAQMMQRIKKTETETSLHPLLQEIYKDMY
Assay type: cell-based
How it was run: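 HEK293 cells transiently co-transfected with GAL4 DBD (aa 1-147)–PPARδ (aa 147-441) fusion and 5×GAL4-luciferase reporter, then exposed 24 h to compound (final 0-30 μM) in OptiMEM at 37° C. Luminescence read; activity as percent of GW501516 control, EC50 from sigmoidal dose-response fit.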

EC50 [nM] | Structure (SMILES)
100 to 1000 | CCc1cc(C(=O)c2ccc(C)c(C)c2)c(NC(=O)CSC(C)(C)C(=O)O)s1 [Example 54, 2-{[3-(3,4-Dimethyl-benzoyl)-5-ethyl-thiophen-2-ylcarbamoyl]-methylsulfanyl}-2-methyl-propionic acid]
100 to 1000 | CCc1ccc(C(=O)c2cc(CC)sc2NC(=O)CSC(C)(C)C(=O)O)cc1 [Example 10, 2-{[5-Ethyl-3-(4-ethyl-benzoyl)-thiophen-2-ylcarbamoyl]-methylsulfanyl}-2-methyl-propionic acid]
1000 to 30000 | CCCc1cc(C(=O)c2ccc(OC)cc2)c(NC(=O)CSCC(=O)O)s1 [Example 63, {[3-(4-Methoxybenzoyl)-5-propyl-thiophen-2-ylcarbamoyl]-methylsulfanyl}-acetic acid]
100 to 1000 | CCc1cc(C(=O)c2ccc(OC(F)(F)F)cc2)c(NC(=O)CSc2ccc(OCC(=O)O)cc2)s1 [Example 93]
100 to 1000 | CCc1cc(C(=O)c2cccc(-c3ccc(F)cc3)c2)c(NC(=O)CSCC(=O)O)s1 [Example 43]
1000 to 30000 | CCc1cc(C(=O)c2ccc(C)c(C)c2)c(NC(=O)CC2(CC(=O)O)CCCC2)s1 [Example 53, (1-{[3-(3,4-Dimethyl-benzoyl)-5-ethyl-thiophen-2-ylcarbamoyl]-methyl}-cyclopentyl)-acetic acid]
1000 to 30000 | CCc1cc(C(=O)c2ccc(OC)cc2)c(NC(=O)CCCC(=O)O)s1 [Example 7, 4-[5-Ethyl-3-(4-methoxy-benzoyl)-thiophen-2-ylcarbamoyl]-butyric acid]
100 to 1000 | CCc1cc(C(=O)c2ccc(OC)cc2)c(NC(=O)CCCSCC(=O)O)s1 [Example 71, {3-[5-Ethyl-3-(4-methoxy-benzoyl)-thiophen-2-ylcarbamoyl]-propylsulfanyl}-acetic acid]
< 100 | O=C(O)CSCC(=O)Nc1sc(Cl)cc1C(=O)c1ccc(OC(F)(F)F)cc1 [Example 67, {[5-Chloro-3-(4-trifluoromethoxy-benzoyl)-thiophen-2-ylcarbamoyl]-methylsulfanyl}-acetic acid]
1000 to 30000 | COc1ccc(C(=O)c2ccsc2NC(=O)CSCC(=O)O)cc1 [Example 68, {[3-(4-Methoxy-benzoyl)-thiophen-2-ylcarbamoyl]-methylsulfanyl}-acetic acid]
1000 to 30000 | CCc1cc(C(=O)c2ccc(OC)cc2)c(NC(=O)CSc2cccc(OCC(=O)O)c2)s1 [Example 88, (3-{[5-Ethyl-3-(4-methoxy-benzoyl)-thiophen-2-ylcarbamoyl]-methylsulfanyl}-phenoxy)-acetic acid]
100 to 1000 | CCc1cc(C(=O)c2ccc(OC(F)(F)F)cc2)c(NC(=O)CC(C)(C)CC(=O)O)s1 [Example 3, 4-[5-Ethyl-3-(4-trifluoromethoxy-benzoyl)-thiophen-2-ylcarbamoyl]-3,3-dimethyl-butylic acid]
< 100 | CCc1cc(C(=O)c2ccc(-c3ccc(C(F)(F)F)cc3)cc2)c(NC(=O)CSCC(=O)O)s1 [Example 38, {[5-Ethyl-3-(4′-trifluoromethyl-biphenyl-4-carbonyl)-thiophen-2-ylcarbamoyl]-methylsulfanyl}-acetic acid]

Same assay, conditions: luciferase reporter, Table 2

EC50 [nM] | Structure (SMILES)
100 to 1000 | CCc1cc(C(=O)c2ccc(OC(F)(F)F)cc2)c(NC(=O)C(C)(C)SCC(=O)O)s1 [Example 107, {1-[5-Ethyl-3-(4-trifluoromethoxy-benzoyl)-thiophen-2-ylcarbamoyl]-1-methyl-ethylsulfanyl}-acetic acid]
100 to 1000 | CCc1cc(C(=O)c2ccc(OC(F)(F)F)cc2)c(NC(=O)CN2CCC(C(=O)O)C2)s1 (stereo not drawn) [Example 162, 1-{[5-Ethyl-3-(4-trifluoromethoxy-benzoyl)-thiophen-2-ylcarbamoyl]-methyl}-pyrrolidine-3-carboxylic acid]
< 100 | CCc1cc(C(=O)c2ccc(OC(F)(F)F)cc2)c(NC(=O)CN2[C@@H](C(=O)O)CC[C@@H]2C)s1 (relative stereo) [Example 179, (2R*,5S*)-1-{[5-Ethyl-3-(4-trifluoromethoxy-benzoyl)-thiophen-2-ylcarbamoyl]-methyl}-5-methyl-pyrrolidine-2-carboxylic acid]
< 100 | CCc1cc(C(=O)c2ccc(OC(F)(F)F)cc2)c(NC(=O)CC(C)CC(=O)O)s1 (stereo not drawn) [Example 174, 4-[5-Ethyl-3-(4-trifluoromethoxy-benzoyl)-thiophen-2-ylcarbamoyl]-3-methyl-butyric acid]
< 100 | CCCc1cc(C(=O)c2ccc(OC(F)(F)F)cc2)c(NC(=O)CSCC(=O)O)s1 [Example 132, {[5-Propyl-3-(4-trifluoromethoxy-benzoyl)-thiophen-2-ylcarbamoyl]-methylsulfanyl}-acetic acid]
100 to 1000 | CCc1cc(C(=O)c2ccc(OC(F)(F)F)cc2)c(NC(=O)CCCC(=O)O)s1 [Example 104, 4-[5-Ethyl-3-(4-trifluoromethoxy-benzoyl)-thiophen-2-ylcarbamoyl]-butyric acid]
100 to 1000 | CCc1cc(C(=O)c2ccc(OC(F)(F)F)c(Cl)c2)c(NC(=O)CN[C@H](C(=O)O)C(C)C)s1 [Example 169, (S)-2-({[3-(3-Chloro-4-trifluoromethoxy-benzoyl)-5-ethyl-thiophen-2-ylcarbamoyl]-methyl}-amino)-3-methyl-butyric acid]
100 to 1000 | CCc1cc(C(=O)c2ccc(OC(F)(F)F)cc2)c(NC(=O)CN[C@@H](C)C(=O)O)s1 [Example 160, (S)-2-({[5-Ethyl-3-(4-trifluoromethoxy-benzoyl)-thiophen-2-ylcarbamoyl]-methyl}-amino)-propionic acid]
< 100 | CCc1cc(C(=O)c2ccc(OC(F)(F)F)cc2)c(NC(=O)CSC(C)C(=O)O)s1 (stereo not drawn) [Example 112, 2-{[5-Ethyl-3-(4-trifluoromethoxy-benzoyl)-thiophen-2-ylcarbamoyl]-methylsulfanyl}-propionic acid]
< 100 | CCc1cc(C(=O)c2ccc(OC(F)(F)F)c(Cl)c2)c(NC(=O)CSCC(=O)O)s1 [Example 142, {[3-(3-Chloro-4-trifluoromethoxy-benzoyl)-5-ethyl-thiophen-2-ylcarbamoyl]-methylsulfanyl}-acetic acid]
< 100 | CCc1cc(C(=O)c2ccc(OC(F)(F)F)cc2)c(NC(=O)CN2[C@@H](C(=O)O)CC[C@@H]2c2ccc(F)cc2)s1 [Example 181, (2R,5R)-1-{[5-Ethyl-3-(4-trifluoromethoxy-benzoyl)-thiophen-2-ylcarbamoyl]-methyl}-5-(4-fluoro-phenyl)-pyrrolidine-2-carboxylic acid]
< 100 | CCc1cc(C(=O)c2ccc(OC(F)(F)F)cc2)c(NC(=O)C(C)SCC(=O)O)s1 (stereo not drawn) [Example 106, {1-[5-Ethyl-3-(4-trifluoromethoxy-benzoyl)-thiophen-2-ylcarbamoyl]-ethylsulfanyl}-acetic acid]
100 to 1000 | CCc1cc(C(=O)c2ccc(OC(F)(F)F)cc2)c(NC(=O)C(NCC(=O)O)c2ccccc2)s1 (stereo not drawn) [Example 122, ({[5-Ethyl-3-(4-trifluoromethoxy-benzoyl)-thiophen-2-ylcarbamoyl]-phenyl-methyl}-amino)-acetic acid]
1000 to 30000 | CCc1cc(C(=O)c2ccc(Cl)cc2)c(NC(=O)CSc2ccc(OCC(=O)O)cc2)s1 [Example 136, (4-{[3-(4-Chloro-benzoyl)-5-ethyl-thiophen-2-ylcarbamoyl]-methylsulfanyl}-phenoxy)-acetic acid]
